According to US8138350B2, “N′-cyano-N-halogenalkylimidamide derivatives” (Bayer Cropscience AG, priority 2006, dated 2012):

Assays:
Format in all cases: in vivo
[1] = test system: Ctenocephalides felis; test: Ctenocephalides felis; oral; conditions: 100 ppm in citrated cattle blood, after 2 d, adult fleas, comparative example
Experimental: Ctenocephalides Felis; Oral
(§1) Solvent: Dimethyl sulphoxide
To produce a suitable preparation of active compound, 1 part by weight of active compound is mixed with the stated amount of […]. Part of the concentrate is diluted with citrated cattle blood, and the desired concentration is prepared.
20 unfed adult fleas (Ctenocephalides felis) are placed into a chamber whose top and bottom ends are closed with gauze. A metal cylinder whose bottom end is closed with parafilm is placed onto the chamber. The cylinder contains the blood/active compound preparation, which can be taken up by the fleas through the parafilm membrane. The blood is warmed to 37° C., but the flea chamber is at room temperature.
After the desired period of time, the kill in % is determined. 100% means that all fleas have been killed; 0% means that none of the fleas have been killed.

[2] = test system: Musca domestica; test: Musca domestica test; conditions: 100 ppm; treated sponge; after 2 d; adult flies; comparative example
Experimental: as §1
To produce a suitable preparation of active compound, 1 part by weight of active compound is mixed with the stated amount of water, and the concentrate is diluted with water to the desired concentration.
Containers containing a sponge treated with the active compound preparation of the desired concentration are populated with adult Musca domestica.
After the desired period of time, the kill in % is determined. 100% means that all flies have been killed; 0% means that none of the flies have been killed.

[3] = test system: Phaedon cochleariae; test: Phaedon test (spray treatment); conditions: 20 g/ha; after 7 d; comparative example
Experimental: Phaedon Test (Spray Treatment)
To produce a suitable preparation of active compound, 1 part by weight of active compound is mixed with the stated amounts of solvents and emulsifier, and the concentrate is diluted with emulsifier-containing water to the desired concentration.
After the desired period of time, the activity in % is determined. 100% means that all beetle larvae have been killed, 0% means that none of the beetle larvae have been killed.
In this test, for example, the following compounds of the Preparation Examples show an activity of ≧80% at an application rate of 500 g/ha: […]

Row | SMILES | Ctenocephalides felis % 2 d (kill) [1] [%] | Musca domestica % 2 d (kill) [2] [%] | Phaedon test spray treatment % 7 d [3] [%]
1 | CC(=NC#N)N(Cc1ccc(Cl)nc1)CC(F)F [I-1, N-[(6-chloropyridin-3-yl)methyl]-N′-cyano-N-(2,2-difluoroethyl)ethanimidamide] | 70 | 100 | 100
2 | CCN(Cc1ccc(Cl)nc1)C(C)=NC#N | 30 | 0 | 0
